Measurements published in patent US9492471B2, “Methods of treating a disease or disorder associated with Bruton'S Tyrosine Kinase” (Celgene Avilomics Research, Inc., priority 2013, dated 2016).
Where two headings read alike, the source gives them in different places.

Columns and labels:
Test in all cases: HotSpot kinase profiling
Format in all cases: biochemical
MSSK1/STK23 = biological target: T1, MSSK1/STK23 (Homo sapiens, UniProt Q9UPE1)
T1 construct: purchased Reaction Biology Corp
In short: (§1)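 Percent inhibition, averaged when run more than once and referenced to a DMSO negative control, came from a radioactive filter-binding readout on P81 paper. Reactions of kinase with freshly made substrate and cofactors ran for 2 h at room temperature.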

MYLK3 = biological target: T2, MYLK3 (Homo sapiens, UniProt Q32MK0)
T2 construct: purchased Reaction Biology Corp
T2 sequence (Q32MK0 1-819): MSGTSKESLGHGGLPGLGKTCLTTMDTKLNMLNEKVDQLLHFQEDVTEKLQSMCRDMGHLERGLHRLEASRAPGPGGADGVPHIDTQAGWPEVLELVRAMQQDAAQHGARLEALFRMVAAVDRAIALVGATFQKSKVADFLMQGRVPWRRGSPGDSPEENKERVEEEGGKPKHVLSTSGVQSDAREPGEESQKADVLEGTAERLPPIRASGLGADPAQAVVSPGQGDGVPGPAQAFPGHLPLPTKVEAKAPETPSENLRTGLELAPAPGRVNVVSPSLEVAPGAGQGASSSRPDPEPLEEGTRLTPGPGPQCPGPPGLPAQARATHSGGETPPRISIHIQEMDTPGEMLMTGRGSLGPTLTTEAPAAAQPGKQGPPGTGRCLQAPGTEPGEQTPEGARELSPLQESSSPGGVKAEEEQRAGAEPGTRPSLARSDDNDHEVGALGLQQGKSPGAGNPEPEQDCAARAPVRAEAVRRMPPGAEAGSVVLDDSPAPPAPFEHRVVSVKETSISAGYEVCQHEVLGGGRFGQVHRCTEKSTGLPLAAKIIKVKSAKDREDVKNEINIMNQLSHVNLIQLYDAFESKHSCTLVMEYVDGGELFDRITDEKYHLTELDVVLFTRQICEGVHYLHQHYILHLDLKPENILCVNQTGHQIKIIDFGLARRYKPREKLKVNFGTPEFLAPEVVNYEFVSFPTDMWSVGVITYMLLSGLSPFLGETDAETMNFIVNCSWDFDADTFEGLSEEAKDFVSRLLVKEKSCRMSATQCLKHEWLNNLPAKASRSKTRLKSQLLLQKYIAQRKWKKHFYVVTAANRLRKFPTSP
In short: as §1

HCK = biological target: T3, HCK (Homo sapiens, UniProt P08631)
T3 construct: purchased Reaction Biology Corp
In short: as §1

P38g = biological target: T4, P38g (Homo sapiens, UniProt P53778)
T4 construct: purchased Reaction Biology Corp
T4 sequence (P53778 1-367): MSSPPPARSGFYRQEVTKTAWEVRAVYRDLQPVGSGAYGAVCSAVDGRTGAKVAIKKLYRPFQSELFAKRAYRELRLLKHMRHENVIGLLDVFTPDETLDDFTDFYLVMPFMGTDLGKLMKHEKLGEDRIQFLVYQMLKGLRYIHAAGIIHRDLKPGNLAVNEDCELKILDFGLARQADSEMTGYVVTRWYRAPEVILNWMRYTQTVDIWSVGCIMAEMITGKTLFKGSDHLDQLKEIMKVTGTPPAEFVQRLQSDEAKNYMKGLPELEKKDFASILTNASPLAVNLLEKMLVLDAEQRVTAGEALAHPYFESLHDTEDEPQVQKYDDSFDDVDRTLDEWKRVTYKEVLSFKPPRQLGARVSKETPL
In short: as §1

PIM2 = biological target: T5, PIM2 (Homo sapiens, UniProt Q9P1W9)
T5 construct: purchased Reaction Biology Corp
In short: as §1

JAK1 = biological target: T6, JAK1 (Homo sapiens, UniProt P23458)
T6 construct: purchased Reaction Biology Corp
In short: as §1

HIPK2 = biological target: T7, HIPK2 (Homo sapiens, UniProt Q9H2X6)
T7 construct: purchased Reaction Biology Corp
In short: as §1

ALK5/TGFBR1 = biological target: T8, ALK5/TGFBR1 (Homo sapiens, UniProt P36897)
T8 construct: purchased Reaction Biology Corp
T8 sequence (P36897 34-503): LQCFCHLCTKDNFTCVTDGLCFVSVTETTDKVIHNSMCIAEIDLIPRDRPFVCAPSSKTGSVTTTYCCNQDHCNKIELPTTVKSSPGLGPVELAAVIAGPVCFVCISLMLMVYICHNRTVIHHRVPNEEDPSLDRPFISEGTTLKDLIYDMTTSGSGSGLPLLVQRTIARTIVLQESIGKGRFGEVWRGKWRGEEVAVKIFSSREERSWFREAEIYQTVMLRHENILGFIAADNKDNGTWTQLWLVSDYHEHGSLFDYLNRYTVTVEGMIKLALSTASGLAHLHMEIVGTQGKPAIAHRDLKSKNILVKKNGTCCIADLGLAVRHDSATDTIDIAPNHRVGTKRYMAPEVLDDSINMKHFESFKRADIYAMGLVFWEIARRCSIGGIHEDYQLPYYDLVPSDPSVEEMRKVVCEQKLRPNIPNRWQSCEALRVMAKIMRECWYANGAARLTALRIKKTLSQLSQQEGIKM
In short: as §1

[1] = read-out: % Enzyme Activity (relative to DMSO controls) Run 1
[2] = read-out: % Enzyme Activity (relative to DMSO controls) Run 2

T1 sequence (Q9UPE1 whole entry): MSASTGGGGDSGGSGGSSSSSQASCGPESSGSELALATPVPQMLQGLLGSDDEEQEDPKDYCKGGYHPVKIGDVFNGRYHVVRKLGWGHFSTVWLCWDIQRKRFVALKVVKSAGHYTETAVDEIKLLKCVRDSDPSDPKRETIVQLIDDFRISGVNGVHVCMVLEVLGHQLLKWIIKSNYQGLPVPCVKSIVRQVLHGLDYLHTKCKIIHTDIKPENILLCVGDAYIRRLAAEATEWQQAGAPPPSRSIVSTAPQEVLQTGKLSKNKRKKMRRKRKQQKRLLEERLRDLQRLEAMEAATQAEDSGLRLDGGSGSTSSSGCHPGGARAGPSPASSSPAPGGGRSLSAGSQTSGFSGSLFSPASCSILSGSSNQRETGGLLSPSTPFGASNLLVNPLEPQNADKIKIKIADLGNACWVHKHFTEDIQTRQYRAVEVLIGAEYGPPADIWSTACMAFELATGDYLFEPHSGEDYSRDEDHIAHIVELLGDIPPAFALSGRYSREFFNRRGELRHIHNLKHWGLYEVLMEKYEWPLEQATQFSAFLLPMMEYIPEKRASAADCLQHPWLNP
T7 sequence (Q9H2X6 whole entry): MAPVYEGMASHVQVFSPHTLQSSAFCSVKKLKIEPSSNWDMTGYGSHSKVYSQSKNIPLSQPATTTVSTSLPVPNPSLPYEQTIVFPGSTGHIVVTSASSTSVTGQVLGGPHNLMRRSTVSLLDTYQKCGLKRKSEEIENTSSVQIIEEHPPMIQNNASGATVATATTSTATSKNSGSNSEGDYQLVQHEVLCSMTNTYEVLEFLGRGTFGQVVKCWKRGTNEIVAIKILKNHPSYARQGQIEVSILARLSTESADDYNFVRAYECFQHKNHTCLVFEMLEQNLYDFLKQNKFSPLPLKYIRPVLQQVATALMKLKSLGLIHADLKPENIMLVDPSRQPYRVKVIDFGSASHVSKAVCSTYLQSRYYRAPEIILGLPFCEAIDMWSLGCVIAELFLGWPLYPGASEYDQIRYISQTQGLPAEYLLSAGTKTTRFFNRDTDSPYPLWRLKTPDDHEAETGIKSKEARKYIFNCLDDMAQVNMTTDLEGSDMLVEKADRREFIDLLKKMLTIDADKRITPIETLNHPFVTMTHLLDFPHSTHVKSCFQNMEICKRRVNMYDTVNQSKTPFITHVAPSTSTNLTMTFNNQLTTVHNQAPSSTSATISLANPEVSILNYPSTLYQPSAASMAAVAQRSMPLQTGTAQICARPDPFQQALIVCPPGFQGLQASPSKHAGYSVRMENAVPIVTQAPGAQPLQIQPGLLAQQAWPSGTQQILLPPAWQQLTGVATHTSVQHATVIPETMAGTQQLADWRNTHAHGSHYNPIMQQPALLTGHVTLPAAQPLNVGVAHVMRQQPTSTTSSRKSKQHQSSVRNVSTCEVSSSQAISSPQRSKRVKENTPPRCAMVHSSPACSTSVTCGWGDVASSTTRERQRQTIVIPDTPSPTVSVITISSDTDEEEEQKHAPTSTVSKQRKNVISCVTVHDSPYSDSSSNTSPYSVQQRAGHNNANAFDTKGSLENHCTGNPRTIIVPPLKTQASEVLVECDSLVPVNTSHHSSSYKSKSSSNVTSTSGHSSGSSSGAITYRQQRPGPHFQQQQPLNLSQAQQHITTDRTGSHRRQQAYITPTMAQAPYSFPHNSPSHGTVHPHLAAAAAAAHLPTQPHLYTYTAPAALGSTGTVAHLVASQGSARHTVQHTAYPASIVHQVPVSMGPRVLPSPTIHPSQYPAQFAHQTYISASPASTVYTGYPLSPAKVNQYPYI
T3 sequence (P08631 whole entry): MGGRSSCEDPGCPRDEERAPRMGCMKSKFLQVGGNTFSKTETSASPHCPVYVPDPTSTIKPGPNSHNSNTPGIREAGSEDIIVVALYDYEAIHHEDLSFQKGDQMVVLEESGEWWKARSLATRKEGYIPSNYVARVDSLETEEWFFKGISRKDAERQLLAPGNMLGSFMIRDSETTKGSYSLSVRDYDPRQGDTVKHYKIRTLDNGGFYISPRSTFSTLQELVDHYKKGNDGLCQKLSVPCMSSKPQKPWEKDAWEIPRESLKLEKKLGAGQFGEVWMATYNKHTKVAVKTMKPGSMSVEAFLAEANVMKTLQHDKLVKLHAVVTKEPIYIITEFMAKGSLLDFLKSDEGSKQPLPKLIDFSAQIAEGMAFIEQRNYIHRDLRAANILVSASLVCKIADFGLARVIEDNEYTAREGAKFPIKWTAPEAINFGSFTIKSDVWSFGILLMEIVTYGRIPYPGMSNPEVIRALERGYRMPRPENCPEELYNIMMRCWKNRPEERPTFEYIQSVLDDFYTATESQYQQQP
T6 sequence (P23458 whole entry): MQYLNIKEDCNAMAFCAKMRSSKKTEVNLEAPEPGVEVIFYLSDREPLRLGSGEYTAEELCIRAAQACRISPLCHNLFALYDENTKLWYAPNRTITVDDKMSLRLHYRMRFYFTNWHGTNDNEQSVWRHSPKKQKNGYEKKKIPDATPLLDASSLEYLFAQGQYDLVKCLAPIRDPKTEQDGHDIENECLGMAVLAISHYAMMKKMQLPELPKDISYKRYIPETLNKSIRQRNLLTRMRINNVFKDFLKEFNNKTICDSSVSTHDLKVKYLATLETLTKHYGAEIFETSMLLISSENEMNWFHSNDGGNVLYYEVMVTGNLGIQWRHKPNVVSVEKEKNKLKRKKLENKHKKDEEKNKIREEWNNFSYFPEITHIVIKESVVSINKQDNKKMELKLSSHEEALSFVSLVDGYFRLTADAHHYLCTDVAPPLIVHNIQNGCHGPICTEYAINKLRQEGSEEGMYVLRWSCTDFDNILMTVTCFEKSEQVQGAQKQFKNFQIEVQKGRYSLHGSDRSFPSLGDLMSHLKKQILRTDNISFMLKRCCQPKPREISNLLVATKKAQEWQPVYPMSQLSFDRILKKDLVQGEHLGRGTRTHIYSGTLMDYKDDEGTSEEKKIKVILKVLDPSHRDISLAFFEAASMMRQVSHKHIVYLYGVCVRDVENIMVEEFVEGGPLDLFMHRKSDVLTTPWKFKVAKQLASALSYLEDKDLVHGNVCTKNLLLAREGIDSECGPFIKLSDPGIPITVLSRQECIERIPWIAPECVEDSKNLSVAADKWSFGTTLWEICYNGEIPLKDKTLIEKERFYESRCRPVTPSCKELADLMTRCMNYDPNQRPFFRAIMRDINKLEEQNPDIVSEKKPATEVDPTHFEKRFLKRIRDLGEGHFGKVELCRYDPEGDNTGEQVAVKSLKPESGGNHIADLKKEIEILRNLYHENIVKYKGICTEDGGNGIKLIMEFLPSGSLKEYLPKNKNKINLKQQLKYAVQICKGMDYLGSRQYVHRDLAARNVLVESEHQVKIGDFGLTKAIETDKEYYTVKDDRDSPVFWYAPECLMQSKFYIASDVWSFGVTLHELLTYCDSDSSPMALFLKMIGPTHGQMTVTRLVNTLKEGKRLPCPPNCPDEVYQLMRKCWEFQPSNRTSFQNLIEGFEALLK
T5 sequence (Q9P1W9 whole entry): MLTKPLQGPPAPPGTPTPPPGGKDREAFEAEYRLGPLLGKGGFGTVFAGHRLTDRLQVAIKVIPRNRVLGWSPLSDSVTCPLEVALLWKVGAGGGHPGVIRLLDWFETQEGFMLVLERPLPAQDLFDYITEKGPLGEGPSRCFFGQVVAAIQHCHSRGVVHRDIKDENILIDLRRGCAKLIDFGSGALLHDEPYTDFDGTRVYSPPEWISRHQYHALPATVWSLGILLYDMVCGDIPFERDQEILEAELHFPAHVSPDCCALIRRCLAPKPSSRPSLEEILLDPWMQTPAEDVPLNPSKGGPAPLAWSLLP

With `C=CC(=O)Nc1cccc(Nc2nc(Nc3ccc(OCCOC)c(F)c3)ncc2F)c1` [Compound 2] the inhibition at 3 µM (MSSK1/STK23) was -6.62%, the remaining activity at 3 µM (MSSK1/STK23; [1]) was 108% and the remaining activity at 3 µM (MSSK1/STK23; [2]) was 105%. For the same molecule, the inhibition at 3 µM (MYLK3) was -15%, the remaining activity at 3 µM (MYLK3; [1]) was 113% and the remaining activity at 3 µM (MYLK3; [2]) was 116%. For the same molecule, the inhibition at 3 µM (HCK) was 29.5%, the remaining activity at 3 µM (HCK; [1]) was 72% and the remaining activity at 3 µM (HCK; [2]) was 69%. For the same molecule, the inhibition at 3 µM (P38g) was -5.53%, the remaining activity at 3 µM (P38g; [1]) was 105% and the remaining activity at 3 µM (P38g; [2]) was 106%. The inhibition at 3 µM (PIM2) was -32.5%, the remaining activity at 3 µM (PIM2; [1]) was 136% and the remaining activity at 3 µM (PIM2; [2]) was 129%. It also gave an inhibition at 3 µM (JAK1) of 40.6%, a remaining activity at 3 µM (JAK1; [1]) of 59.7% and a remaining activity at 3 µM (JAK1; [2]) of 59%. The inhibition at 3 µM (HIPK2) was 2.82%, the remaining activity at 3 µM (HIPK2; [1]) was 95.8% and the remaining activity at 3 µM (HIPK2; [2]) was 98.6%. The inhibition at 3 µM (ALK5/TGFBR1) was -8.03%, the remaining activity at 3 µM (ALK5/TGFBR1; [1]) was 106% and the remaining activity at 3 µM (ALK5/TGFBR1; [2]) was 110%.
